The values that follow come from patent US9822144B2, “Benzodiazepine dimers, conjugates thereof, and methods of making and using” (priority 2015, dated 2017).

Molecules are shown by their SMILES.

Format in all cases: cell-based
Test [1] has as its system H226 lung cancer cell line. Nature of the test: Cytotoxic activity of dimers, ATP luminescence or MTS cell proliferation assay. Particulars: 72 h. As for the experimental part:
(§1) The cytotoxic activity of dimers of this invention was tested against H226 lung cancer, 786-O renal cancer, N87 gastric cancer, and/or OVCAR3 ovarian cancer cell lines. The ability of dimers to inhibit cell proliferation can be measured by either an ATP luminescence assay or an MTS cell proliferation assay.
(§2) This is a general procedure for an ATP luminescence assay: Cells are seeded at 1×10^3 cells/well in 96-well plates for 3 h for ATP CellTiterGlo™ assays, respectively. Serial dilutions (1:3) of compounds are added to the wells. Plates are allowed to incubate for 72 h. A CellTiterGlo™ cell viability kit from Promega is used to measure ATP content of cells treated with test compounds following manufacturer's instruction. A decrease in the ATP content is a measure of decrease in cellular viability. The EC50 value—the concentration at which an agent reduces cell viability by 50% of the maximum effect—can be calculated using PRISM™ software, version 5.0 (GraphPad Software, La Jolla, Calif., USA).
(§3) The MTS cell proliferation assay was performed as follows: CellTiter 96 Aqueous Non-Radioactive Cell proliferation Kit from Promega (Madison, Wis.) is used to determine the number of viable cells in cell proliferation assay. Tumor cells are plated at certain seeding densities in sterile 384-well black clear bottom Matrix plates at 40 μL per well and incubated overnight at 37° C. in 5% CO2 before assaying. On the next day, one set of cell plates (10 plates) is used to determine time zero cell density, and 3-(4,5-dimethylthiazol-2-yl)-5-(3-carboxymethoxyphenyl)-2-(4-sulfophenyl)-2H-tetrazolium is added at 4 μL/well into 10 plates followed by incubation at 37° C. in 5% CO2 for three hours. This tetrazolium reagent is bioreduced by […] to form a formazan product which is soluble in aqueous solution. Absorbance at 490 nm is measured on an Envision reader (Perkin Elmer, Boston, Mass.). On the same day, compounds are added into remaining cell plates (T72 plates) and incubated at 37° C. in 5% CO2. After 72 hours, 4 μL MTS reagents are then added into those cell plates. The plates are further incubated at 37° C. in 5% CO2 for three hours and the absorbance values at A490 were measured on an Envision reader.

The test system of test [2] is OVCAR3 ovarian cancer cell line. Described as above. The following applies: 72 h. Here is the method: as §1, §2, §3
Test [3] relates to N87 gastric cancer cell line. Described as above. The following applies: N87 gastric cancer cells, 72 h. As for the experimental part: as §1, §2, §3
Test [4] relates to H187 small-cell lung cancer cell line. The test can be described thus: Activity of dimers against small-cell lung cancer cell line (Table IB). The following applies: Homo sapiens, NCI-H187, H187 small-cell lung cancer cells.
Test [5] relates to DMS 79 small-cell lung cancer cell line. The description is as above. Particulars: Homo sapiens, DMS 79 small-cell lung cancer cells.
[6] abbreviates: Homo sapiens, NCI-H226, H226 lung cancer cells.
The mark [7] stands for this setting: Homo sapiens, OVCAR-3, OVCAR3 ovarian cancer cells.

Consider `COc1ccc2c(c1)CN1C(=O)c3cc(OC)c(OCCCOc4cc5c(cc4OC)C(=O)N4C=C(c6ccc(N)cc6)C[C@H]4C=N5)cc3N=C[C@@H]1C2` [IIb-03], for which the EC50 in test [1] (setting [6]) is 150 pM; in test [2] (setting [7]), 330 pM; in test [3], 110 pM. Further, the IC50 in test [4] amounted to 0.002 nM; in test [5], 0.003 nM.

As to `COc1cc2c(cc1OCCCOc1cc3c(cc1OC)C(=O)N1Cc4ccccc4C[C@H]1CN3)NC[C@@H]1Cc3ccccc3CN1C2=O` [IIa-04], the EC50 in test [1] (setting [6]) turned out to be 8000 pM; in test [2] (setting [7]), 2600 pM; in test [3], 5700 pM.

On to `COc1cc2c(cc1OCCCCCOc1cc3c(cc1OC)C(=O)N1Cc4cc(N)ccc4C[C@H]1C=N3)N=C[C@@H]1Cc3ccccc3CN1C2=O` [IIa-10], for which the EC50 amounted to 20 pM in test [1] (setting [6]), 20 pM in test [2] (setting [7]) and 30 pM in test [3].

In turn, `COc1cc2c(cc1OCCNCCOc1cc3c(cc1OC)C(=O)N1Cc4ccccc4C[C@H]1CN3)N=C[C@@H]1Cc3ccccc3CN1C2=O` [IIa-20] returned an EC50 in test [3] of 1300 pM.

`COc1cc2c(cc1OCc1cccc(COc3cc4c(cc3OC)C(=O)N3Cc5ccccc5C[C@H]3C=N4)c1)N=C[C@@H]1Cc3ccccc3CN1C2=O` [IIa-21] yielded an EC50 in test [3] of 20 pM.

As for `COc1cc2c(cc1OCCCOc1cc3c(cc1OC)C(=O)N1Cc4ccccc4C[C@H]1CN3)N=C[C@@H]1Cc3ccccc3CN1C2=O` [IIa-03], the values for the EC50 in test [1] (H226 lung cancer cells), in test [2] (OVCAR3 ovarian cancer cells) and in test [3] were 410 pM, 180 pM and 460 pM, respectively.

On to `COc1cc2c(cc1OCCCCCOc1cc3c(cc1OC)C(=O)N1Cc4ccccc4C[C@H]1C=N3)N=C[C@@H]1Cc3ccccc3CN1C2=O` [IIa-02], for which the EC50 in test [1] (H226 lung cancer cells) was 46 to 180 pM; in test [2] (OVCAR3 ovarian cancer cells), 77 to 120 pM; in test [3], 49 to 150 pM.

On to `COc1cc2c(cc1OCC(N)COc1cc3c(cc1OC)C(=O)N1Cc4ccccc4C[C@H]1C=N3)N=C[C@@H]1Cc3ccccc3CN1C2=O` [IIa-18], for which, in test [1] (H226 lung cancer cells), the EC50 stood at 3200 pM.

For the molecule `COc1cc2c(cc1OCc1cc(N)cc(COc3cc4c(cc3OC)C(=O)N3Cc5ccccc5C[C@H]3C=N4)c1)N=C[C@@H]1Cc3ccccc3CN1C2=O` [IIa-05, (6aS,6a′S)-3,3′-(((5-amino-1,3-phenylene)bis(methylene))bis(oxy))bis(2-methoxy-6a,7-dihydrobenzo[5,6][1,4]diazepino[1,2-b]isoquinolin-14(12H)-one)], the values for the EC50 in test [1] (setting [6]), in test [2] (setting [7]) and in test [3] were 150 pM, 90 pM and 150 pM, respectively.

Regarding `COc1cc2c(cc1OCCCCCOc1cc3c(cc1OC)C(=O)N1Cc4ccccc4C[C@H]1C=N3)N=C[C@@H]1CCCN1C2=O` [IIb-01], the EC50 in test [1] (setting [6]) was 440 pM; in test [2] (setting [7]) it was 220 pM; in test [3], 330 pM.

Turning to `COc1cc2c(cc1OCCCOc1cc3c(cc1OC)C(=O)N1Cc4ccccc4C[C@H]1C=N3)N=C[C@@H]1Cc3ccccc3CN1C2=O` [IIa-01], the EC50 in test [2] (setting [7]) was found to be 150 pM; in test [3], 16 pM.

As to `COc1cc2c(cc1OCc1cc(COc3cc4c(cc3OC)C(=O)N3Cc5ccccc5C[C@H]3C=N4)cc(N=[N+]=[N-])c1)N=C[C@@H]1Cc3ccccc3CN1C2=O` [IIa-22], a half-maximal response in test [3] (EC50) required 50 pM.

The molecule `COc1cc2c(cc1OCCCCCOc1cc3c(cc1OC)C(=O)N1c4ccncc4C[C@H]1C=N3)N=C[C@@H]1Cc3ccccc3CN1C2=O` [IIc-01] yielded an EC50 in test [3] of 280 pM.

In the case of `COc1cc2c(cc1OCCNCCOc1cc3c(cc1OC)C(=O)N1Cc4ccccc4C[C@H]1C=N3)N=C[C@@H]1Cc3ccccc3CN1C2=O` [IIa-16, (6aS,6a′S)-3,3′-((azanediylbis(ethane-2,1-diyl))bis(oxy))bis(2-methoxy-6a,7-dihydrobenzo[5,6][1,4]diazepino[1,2-b]isoquinolin-14(12H)-one)], the EC50 in test [1] (setting [6]) stood at 188 pM. The IC50 amounted to 0.005 nM in test [4] and 0.006 nM in test [5].
